{"source": "paper PMC11162469", "about": "“Discovery of RXFP2 genetic association in resistant hypertensive men and RXFP2 antagonists for the treatment of resistant hypertension” (Scientific Reports, 2024)", "key": {"rat RXFP2 [1]": {"system": "rat RXFP2", "test": "INSL3-stimulated cAMP assay in HEK293 with BacMam expression of rat RXFP2", "type": "cell-based", "conditions": "read-out: EC50 cAMP in HEK293 transiently expressing rat RXFP2", "procedure": "Active compounds (RXFP2 HTRF IC50 < 100 µM, RXFP2 FLIPR IC50 < 100 µM) were profiled to determine selectivity and rat cross-reactivity (Fig. 2). The RXFP1 assay detected compound inhibition of relaxin EC80-induced cAMP in HEK293 transiently expressing human RXFP1 (hRXFP1). […] Only 7 of 104 compounds had rRXFP2 IC50 < 100 µM, indicating poorly conserved receptor binding sites across species. RXFP2 blockers were organized into two potential series, based on structural similarity. […] BRL-37274 and GSK618069 were identified as selective RXFP2 antagonists. […] Ultimately, poor chemical properties and low ligand efficiency limited further compound optimization (Table 1, Supplementary Figs. S6, S7).\nThe nucleotide sequences used in Bacmam transfections encoded RXFP protein as described in UniProt (Q9HBX9. RXFP1_human; Q8WXD0. RXFP2_human; Q5ECL0. RXFP2_rat). […]\n(§1) cAMP generation was measured using the Lance Ultra cAMP kit as per manufacturer’s instructions (Perkin Elmer) in HEK293 cells transduced in tissue culture flasks with RXFP BacMam, incubated at 37 °C/5% CO2 for 18 h before assay. […] After a 30 min incubation, 4 µL of Lance detection reagent was added and the FRET signal read 1 h later using a TR-FRET-capable plate reader, with excitation at 340 nm and emission at 615 nm and 665 nm. […]"}, "rat RXFP2 [2]": {"target": "T1, rat RXFP2 (Rattus norvegicus, UniProt F7EMH8)", "T1 sequence (F7EMH8 20-737)": "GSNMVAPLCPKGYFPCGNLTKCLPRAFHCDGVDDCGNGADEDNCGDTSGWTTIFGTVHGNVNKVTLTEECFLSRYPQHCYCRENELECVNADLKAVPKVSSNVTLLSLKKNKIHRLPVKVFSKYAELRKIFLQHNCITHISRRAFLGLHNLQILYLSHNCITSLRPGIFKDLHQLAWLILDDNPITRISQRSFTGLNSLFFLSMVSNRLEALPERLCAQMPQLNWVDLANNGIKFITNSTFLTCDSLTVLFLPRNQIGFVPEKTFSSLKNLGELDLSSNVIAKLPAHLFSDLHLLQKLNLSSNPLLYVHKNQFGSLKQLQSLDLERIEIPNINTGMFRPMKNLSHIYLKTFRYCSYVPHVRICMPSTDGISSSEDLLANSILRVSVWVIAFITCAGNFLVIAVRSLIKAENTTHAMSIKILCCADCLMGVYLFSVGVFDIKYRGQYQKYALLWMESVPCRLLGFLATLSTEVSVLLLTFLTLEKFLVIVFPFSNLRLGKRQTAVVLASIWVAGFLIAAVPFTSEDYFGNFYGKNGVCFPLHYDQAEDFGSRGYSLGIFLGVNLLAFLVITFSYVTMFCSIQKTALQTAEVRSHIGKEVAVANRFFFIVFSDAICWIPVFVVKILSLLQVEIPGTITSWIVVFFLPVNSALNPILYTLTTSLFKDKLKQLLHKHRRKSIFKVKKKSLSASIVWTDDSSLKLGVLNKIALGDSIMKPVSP", "test": "INSL3-stimulated cAMP assay in HEK293 stably expressing rat RXFP2", "protocol": "(§4) RXFP activity assays were developed in HEK293 with stable expression of RXFP2 or RXFP1.\n(§5) The same approach was used to generate stable HEK293 lines expressing human and rat RXFP1 and RXFP2 cDNA. The cAMP assay was conducted using the Eurofin Hithunter kit per manufacturer’s instructions in a 384-well format. All dose curve fitting and EC50 and IC50 determinations were performed in Prism (v9.3.0) using the non-linear fit, variable slope (four parameter) function."}, "rat RXFP2 [3]": {"target": "T1, rat RXFP2", "test": "INSL3-stimulated CYP11B2 mRNA expression in H295R stably expressing rat RXFP2", "type": "cell-based", "design": "expressed in transfected cells", "conditions": "48 h of treatment; read-out: EC50 on CYP11B2 mRNA expression, H295R-rRXFP2", "procedure": "(§2) RXFP2 antagonists were added to H295R-rRXFP2 before addition of INSL3 EC80 (3.5 nM) for 48 h, whereupon the cells and supernatants were collected. CYP11B1 and CYP11B2 mRNA were determined by qPCR and the RXFP2 blocker potencies were calculated (Fig. 5a). Fifteen antibodies have IC50s < 50 nM, and three of the top antibodies (1F2, 4G6, and 2D4) were selected for evaluation in steroid hormone secretion assays by ELISA.\n(§3) Data entered as XY table, with x = [Inhibitor] (nM) and y = CYP11B2 or CYP11B1 fold change."}, "RXFP2 [4]": {"target": "T2, RXFP2 (Homo sapiens, UniProt Q8WXD0)", "T2 sequence (Q8WXD0 whole entry)": "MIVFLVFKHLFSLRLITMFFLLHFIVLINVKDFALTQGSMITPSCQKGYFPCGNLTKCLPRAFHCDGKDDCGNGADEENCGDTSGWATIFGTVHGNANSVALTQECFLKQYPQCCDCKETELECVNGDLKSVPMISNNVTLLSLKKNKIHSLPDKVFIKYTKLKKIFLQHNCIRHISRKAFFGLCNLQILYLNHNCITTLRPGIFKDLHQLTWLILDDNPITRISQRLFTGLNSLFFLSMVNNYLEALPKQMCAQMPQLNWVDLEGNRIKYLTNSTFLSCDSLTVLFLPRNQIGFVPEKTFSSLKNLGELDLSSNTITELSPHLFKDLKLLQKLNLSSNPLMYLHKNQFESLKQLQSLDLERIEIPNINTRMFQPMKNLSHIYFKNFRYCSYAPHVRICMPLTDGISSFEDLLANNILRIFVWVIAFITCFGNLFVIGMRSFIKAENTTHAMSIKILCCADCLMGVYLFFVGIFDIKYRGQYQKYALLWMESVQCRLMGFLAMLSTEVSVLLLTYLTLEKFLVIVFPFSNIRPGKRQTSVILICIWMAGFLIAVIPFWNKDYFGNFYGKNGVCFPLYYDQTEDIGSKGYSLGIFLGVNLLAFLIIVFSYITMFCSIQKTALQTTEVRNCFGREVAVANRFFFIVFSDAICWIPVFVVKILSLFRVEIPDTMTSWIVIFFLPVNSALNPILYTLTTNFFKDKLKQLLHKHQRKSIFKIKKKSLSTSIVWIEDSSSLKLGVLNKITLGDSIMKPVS", "test": "INSL3-stimulated cAMP assay in HEK293 with BacMam expression of human RXFP2", "type": "cell-based", "design": "expressed in transfected cells; host or cells: HEK293-MSRII, BacMam transduction (MOI 5)", "conditions": "HTRF primary assay, read-out: EC50 cAMP in HEK293 expressing human RXFP2", "from_the_text": "A high throughput screen (HTS) assay was developed using HEK293 cells transduced with RXFP2 via baculovirus-mediated gene transfer (BacMam)[40]. […] The HTS campaign identified 104 hits across 8 clusters showing blockade of hRXFP2.\nThe nucleotide sequences used in Bacmam transfections encoded RXFP protein as described in UniProt (Q9HBX9. RXFP1_human; Q8WXD0. RXFP2_human; Q5ECL0. RXFP2_rat). HEK293- MSRII cells were maintained in DMEM‐F12, supplemented with 10% fetal bovine serum (FBS) and L-glutamine at 37 °C/5% CO2. HEK293 stably expressing Gα16 were maintained in DMEM‐F12, supplemented with 10% FBS, L-glutamine and selection antibiotics at 37 °C/5% CO2. Transient receptor expression was achieved using modified baculoviruses (BacMam), generated according to manufacturer’s instructions using the Bac-to-Bac system (Invitrogen, UK) encoding hRXFP1, hRXFP2 or rRXFP2. Cells were transduced with RXFP-BacMam at an optimized multiplicity of infection (MOI) of 5.\nas §1"}, "RXFP2 [5]": {"target": "T2, RXFP2", "test": "INSL3-stimulated cAMP assay in HEK293 stably expressing human RXFP2", "protocol": "as §4, §5"}, "RXFP2 [6]": {"target": "T2, RXFP2", "test": "cell-based", "protocol": "Resulting molecules were counter screened against parental HEK293 to remove compounds inhibiting cAMP with < tenfold selectivity compared to RXFP2 expressing cells. An orthogonal readout was utilized to confirm RXFP2 antagonist activity; whereby RXFP2 was transiently expressed in HEK293 stably expressing a member of the Gαq G protein family (murine Gα16) to induce promiscuous G-protein coupling and subsequent calcium mobilization.\nFor the RXFP2 orthologue assay, calcium detection was measured using FLIPR assay technology in HEK293‐ MSRII Gα16 cells. Cells were resuspended in fresh cell culture media in the presence of RXFP2 BacMam and seeded at a density of 15,000 cells/well in 50 µL into black clear‐bottomed 384‐well plates and incubated at 37 °C/5% CO2 for 24 h prior to assay. Media from wells was aspirated and replaced with 30 µL/well of assay buffer (HBSS, 25 mM HEPES, pH 7.4) supplemented with dye-loading reagents (30 µM probenecid, 3 µM Fluo‐4 and 750 µM Brilliant Black). Plates were incubated for 1 h at 37 °C/5% CO2. Test compounds were added to dye-loaded cells at 10 µL/well and incubated for 10 min. Agonist stimulation was induced with the addition of 10 µL/well assay buffer supplemented with a final EC80 concentration of ligand (2.4 nM INSL3). Fluorescence was detected immediately using a FLIPR TETRA plate reader, with excitation at 488 nm and emission at 530 nm. […]"}, "rat RXFP2 [7]": {"target": "T1, rat RXFP2", "test": "INSL3-stimulated CYP11B1 mRNA expression in H295R stably expressing rat RXFP2", "type": "cell-based", "design": "expressed in transfected cells", "conditions": "48 h of treatment; read-out: EC50 on CYP11B1 mRNA expression, H295R-rRXFP2", "procedure": "as §2, §3"}}, "note": "Bridge positions count the residues as written; N and C are the ends. Ends that are not written are not given here. I, II: the chains in the order shown."}
{"substance": "I: PTPEMREKLCGHHFVRALVRVCGGPRWSTEA / II: AAATNPARYCCLSGCTQQDLLTLCPY (disulfide I:10-II:11, I:22-II:24, II:10-II:15) [INSL3, Insulin-like peptide 3]", "values": [{"measurement": "EC50", "setting": "rat RXFP2 [1]", "result": 13, "unit": "nM"}, {"measurement": "EC50", "setting": "rat RXFP2 [2]", "result": 8.4, "unit": "nM"}, {"measurement": "EC50", "setting": "rat RXFP2 [3]", "result": 0.4, "unit": "nM"}, {"measurement": "EC50", "setting": "RXFP2 [4]", "result": 0.048, "unit": "nM"}, {"measurement": "EC50", "setting": "RXFP2 [5]", "result": 2.9, "unit": "nM"}, {"measurement": "EC50", "setting": "RXFP2 [6]", "result": 13.4, "unit": "nM"}, {"measurement": "EC50", "setting": "rat RXFP2 [7]", "result": 0.3, "unit": "nM"}]}
